Key:
bulrush [1] = test: Test Example 2: herbicidal efficacy on rice paddy weeds post-emergence; assay type: in vivo, Scirpus juncoides; conditions: post-emergence, one leaf stage, 21 days after treatment
[2] = system: transplanted paddy rice plant and Bulrush; test: Test Example 5: selectivity between transplanted paddy rice plant and weeds; assay type: in vivo; conditions: (highest dosage with no phytotoxicity to paddy rice)/(lowest dosage with effective level 4 on Bulrush); rice 3000-100 g/ha, Bulrush 300-10 g/ha; 21 days
How it was run: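 Transplanted paddy rice was treated at 3000, 1000, 300 and 100 g/ha active ingredient for phytotoxicity, and post-emergence bulrush at 300, 100, 30 and 10 g/ha. Plants were kept in a hothouse for 21 days. Growth inhibition versus untreated control was scored 0–4 (0%, 1–39%, 40–69%, 70–89%, 90–100%).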

bulrush [3] = test: Test Example 1: herbicidal efficacy on rice paddy weeds pre-emergence; assay type: in vivo, Scirpus juncoides; conditions: 21 days
[4] = system: paddy rice plant (cultivar: Nihonbare); test: Test Example 3: phytotoxicity test for transplanted paddy rice plant; assay type: in vivo; conditions: transplanted rice, 21 days after treatment
How it was run: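 Clay loam soil was placed in a 75 cm^2 plastic pot and flooded to a water depth of 5 cm. Two Nihonbare paddy rice plants at the two-leaf stage were transplanted 1 cm deep and grown in a hot house. After treatment, pots stayed in the hot house for 21 days, and phytotoxicity was then graded against an untreated control.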

false pimpernel [5] = test: Test Example 1: herbicidal efficacy on rice paddy weeds pre-emergence; assay type: in vivo, Lindernia pyxidaria; conditions: 21 days
barnyard glass = test: Test Example 2: herbicidal efficacy on rice paddy weeds post-emergence; assay type: in vivo, Echinochloa crus-galli; conditions: post-emergence, one leaf stage, 21 days after treatment
How it was run: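 Plastic pots of 75 cm^2 were filled with clay loam soil and sown with barnyard glass and bulrush seeds, then topped with 75 cm^3 soil containing false pimpernel seeds. The pots were flooded to 5 cm water depth and held in a hot house. Twenty-one days after treatment, herbicidal efficacy was graded against an untreated control.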

false pimpernel [6] = test: as above; assay type: in vivo, Lindernia pyxidaria; conditions: post-emergence, one leaf stage, 21 days after treatment
bulrush [7] = test: Test Example 4: low dosage test for rice paddy weeds; assay type: in vivo, Scirpus juncoides; conditions: 300 g/ha as an active ingredient; plants treated at the one leaf stage; 21 days after treatment; vs untreated control
How it was run: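 Bulrush sown in clay loam pots, flooded to 5 cm water in a hot house, treated at the one-leaf stage with formulated compound at 300 g/ha. Efficacy scored 0–4 against untreated control 21 days after treatment (4 = 90–100%, 0 = 0% inhibition).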

[8] = dosage 1000 g/ha, treated 5 days after transplantation

Row | Compound | Bulrush post (herbicidal efficacy grade) (bulrush [1]; dosage 1000 g/ha) | Selective Index [2] | Bulrush pre (herbicidal efficacy grade) (bulrush [3]; dosage 1000 g/ha) | Phytotoxicity to paddy rice [4, 8] | False pimpernel pre (herbicidal efficacy grade) (false pimpernel [5]; dosage 1000 g/ha) | Burnyard grass post (herbicidal efficacy grade) (barnyard glass; dosage 1000 g/ha) | False pimpernel post (herbicidal efficacy grade) (false pimpernel [6]; dosage 1000 g/ha) | Herbicide effect to Bulrush (bulrush [7]) | Bulrush post (herbicidal efficacy grade) (bulrush [1]; dosage 300 g/ha) | Bulrush pre (herbicidal efficacy grade) (bulrush [3]; dosage 300 g/ha) | Phytotoxicity to paddy rice ([4]; dosage 300 g/ha) | False pimpernel pre (herbicidal efficacy grade) (false pimpernel [5]; dosage 300 g/ha) | Burnyard grass post (herbicidal efficacy grade) (barnyard glass; dosage 300 g/ha) | False pimpernel post (herbicidal efficacy grade) (false pimpernel [6]; dosage 300 g/ha)
1 | CCC1(CC)CN(Cc2ccccc2N(C(=O)OC)S(=O)(=O)C(F)(F)F)C(=S)O1 [1-183] | 4 (90%-100% of herbicidal efficacy or phytotoxicity) | 10 | 4 (90%-100% of herbicidal efficacy or phytotoxicity) | 1 (1%-39% of herbicidal efficacy or phytotoxicity) | 4 (90%-100% of herbicidal efficacy or phytotoxicity) | 4 (90%-100% of herbicidal efficacy or phytotoxicity) | 4 (90%-100% of herbicidal efficacy or phytotoxicity) | 4 (90%-100% of herbicidal efficacy or phytotoxicity) |  |  |  |  |  | 
2 | COC(=O)N(c1ccccc1CN1CC(C)(C)SC1=O)S(=O)(=O)C(F)(F)F [1-186] | 4 (90%-100% of herbicidal efficacy or phytotoxicity) | 10 | 4 (90%-100% of herbicidal efficacy or phytotoxicity) | 1 (1%-39% of herbicidal efficacy or phytotoxicity) | 4 (90%-100% of herbicidal efficacy or phytotoxicity) | 4 (90%-100% of herbicidal efficacy or phytotoxicity) | 4 (90%-100% of herbicidal efficacy or phytotoxicity) | 4 (90%-100% of herbicidal efficacy or phytotoxicity) |  |  |  |  |  | 
3 | COC(=O)N(c1ccccc1CN1C(=O)OC(C)(C)C1=O)S(=O)(=O)C(F)(F)F [1-188] | 4 (90%-100% of herbicidal efficacy or phytotoxicity) | ≧10 | 4 (90%-100% of herbicidal efficacy or phytotoxicity) | 1 (1%-39% of herbicidal efficacy or phytotoxicity) | 4 (90%-100% of herbicidal efficacy or phytotoxicity) | 4 (90%-100% of herbicidal efficacy or phytotoxicity) | 4 (90%-100% of herbicidal efficacy or phytotoxicity) | 4 (90%-100% of herbicidal efficacy or phytotoxicity) |  |  |  |  |  | 
4 | CCC1OC(=O)N(Cc2ccccc2NS(=O)(=O)C(F)(F)F)C1=O (stereo not shown) [1-192] |  | 10 |  |  |  |  |  | 4 (90%-100% of herbicidal efficacy or phytotoxicity) | 4 (90%-100% of herbicidal efficacy or phytotoxicity) | 4 (90%-100% of herbicidal efficacy or phytotoxicity) | 1 (1%-39% of herbicidal efficacy or phytotoxicity) | 4 (90%-100% of herbicidal efficacy or phytotoxicity) | 0 (0% of herbicidal efficacy or phytotoxicity) | 0 (0% of herbicidal efficacy or phytotoxicity)
5 | CCCCOC(=O)N(c1ccccc1CN1C(=O)OC(C)(C)C1OC)S(=O)(=O)C(F)(F)F (stereo not shown) [1-196] | 4 (90%-100% of herbicidal efficacy or phytotoxicity) | 10 | 4 (90%-100% of herbicidal efficacy or phytotoxicity) | 1 (1%-39% of herbicidal efficacy or phytotoxicity) | 4 (90%-100% of herbicidal efficacy or phytotoxicity) | 4 (90%-100% of herbicidal efficacy or phytotoxicity) | 4 (90%-100% of herbicidal efficacy or phytotoxicity) | 4 (90%-100% of herbicidal efficacy or phytotoxicity) |  |  |  |  |  | 
6 | CC(C)COC(=O)N(c1ccccc1CN1CCOC1=O)S(=O)(=O)C(F)(F)F [Compound No. 1-2] | 4 (90%-100% of herbicidal efficacy or phytotoxicity) | 3 | 4 (90%-100% of herbicidal efficacy or phytotoxicity) | 1 (1%-39% of herbicidal efficacy or phytotoxicity) | 4 (90%-100% of herbicidal efficacy or phytotoxicity) | 4 (90%-100% of herbicidal efficacy or phytotoxicity) | 4 (90%-100% of herbicidal efficacy or phytotoxicity) | 3 (70%-89% of herbicidal efficacy or phytotoxicity) |  |  |  |  |  | 
7 | CC(C)COC(=O)N(c1ccccc1CN1CC(C)OC1=O)S(=O)(=O)C(F)(F)F (stereo not shown) [Compound No. 1-18] | 4 (90%-100% of herbicidal efficacy or phytotoxicity) | 33 | 4 (90%-100% of herbicidal efficacy or phytotoxicity) | 0 (0% of herbicidal efficacy or phytotoxicity) | 4 (90%-100% of herbicidal efficacy or phytotoxicity) | 4 (90%-100% of herbicidal efficacy or phytotoxicity) | 4 (90%-100% of herbicidal efficacy or phytotoxicity) | 4 (90%-100% of herbicidal efficacy or phytotoxicity) |  |  |  |  |  | 
8 | CC(C)COC(=O)N(c1ccccc1CN1CC(C)OC1=S)S(=O)(=O)C(F)(F)F (stereo not shown) [Compound No. 1-22, 5-methyl-3-{2-[N-(isobutoxycarbonyl)-N-(trifluoromethanesulfonyl)amino]benzyl}-2-oxazolidinethione] | 4 (90%-100% of herbicidal efficacy or phytotoxicity) | 33 | 4 (90%-100% of herbicidal efficacy or phytotoxicity) | 0 (0% of herbicidal efficacy or phytotoxicity) | 4 (90%-100% of herbicidal efficacy or phytotoxicity) | 4 (90%-100% of herbicidal efficacy or phytotoxicity) | 4 (90%-100% of herbicidal efficacy or phytotoxicity) | 4 (90%-100% of herbicidal efficacy or phytotoxicity) |  |  |  |  |  | 
9 | CCC1CN(Cc2ccccc2NS(=O)(=O)C(F)(F)F)C(=O)O1 (stereo not shown) [Compound No. 1-23, 5-ethyl-3-[2-(trifluoromethanesulfonylamino)benzyl]-2-oxazolidinone] | 4 (90%-100% of herbicidal efficacy or phytotoxicity) | 10 | 4 (90%-100% of herbicidal efficacy or phytotoxicity) | 1 (1%-39% of herbicidal efficacy or phytotoxicity) | 4 (90%-100% of herbicidal efficacy or phytotoxicity) | 4 (90%-100% of herbicidal efficacy or phytotoxicity) | 4 (90%-100% of herbicidal efficacy or phytotoxicity) | 4 (90%-100% of herbicidal efficacy or phytotoxicity) |  |  |  |  |  | 
10 | CC(C)COC(=O)N(c1ccccc1CN1CC(C)(C)SC1=O)S(=O)(=O)C(F)(F)F [Compound No. 1-185, 3-{2-[N-(isobutoxycarbonyl)-N-(trifluoromethanesulfonyl)amino]benzyl}-5,5-dimethylthiazolidin-2-one] | 4 (90%-100% of herbicidal efficacy or phytotoxicity) | 33.3 | 4 (90%-100% of herbicidal efficacy or phytotoxicity) | 0 (0% of herbicidal efficacy or phytotoxicity) | 4 (90%-100% of herbicidal efficacy or phytotoxicity) | 4 (90%-100% of herbicidal efficacy or phytotoxicity) | 4 (90%-100% of herbicidal efficacy or phytotoxicity) | 4 (90%-100% of herbicidal efficacy or phytotoxicity) |  |  |  |  |  | 
11 | CC1(C)OC(=O)N(Cc2ccccc2NS(=O)(=O)C(F)(F)F)C1=O [Compound No. 1-187, 5,5-dimethyl-3-[2-(trifluoromethanesulfonylamino)benzyl]oxazolidine-2,4-dione] | 4 (90%-100% of herbicidal efficacy or phytotoxicity) | ≧10 | 4 (90%-100% of herbicidal efficacy or phytotoxicity) | 3 (70%-89% of herbicidal efficacy or phytotoxicity) | 4 (90%-100% of herbicidal efficacy or phytotoxicity) | 4 (90%-100% of herbicidal efficacy or phytotoxicity) | 4 (90%-100% of herbicidal efficacy or phytotoxicity) | 4 (90%-100% of herbicidal efficacy or phytotoxicity) |  |  |  |  |  | 

— patent publication US20080274892A1, “Novel Haloalkylsulfonanilide Derivative, Herbicide, and Method of Use Thereof” (priority 2005, published 2008)
